This is an account of results in US7557133B2, “Caspase inhibitors containing isoxazoline ring” (LG Life Sciences Ltd., priority 2003, dated 2009).

For experiment [1], the system named is Jurkat cell (ATCC TIB-152). Put plainly: Jurkat cell apoptosis by Fas antibody, WST-1 method. The experiment is classed as cell-based. To be noted: apoptosis using Fas antibody, WST-1; for IC50: Homo sapiens, Jurkat. As for the experimental part:
The […] inhibitory activity of the inhibitors was determined by subjecting Jurkat cell (ATCC TIB-152) to apoptosis using Fas antibody (Upstate Biotech 05-201) and by detecting the color change according to the WST-1 method known in Francoeur A. M. and Assalian A. (1996) Biochemica 3, 19-25 to observe the amount of alive Jurkat cells when the cells were treated by the inhibitor. Spectra MAX 340 Spectrometer of Molecular Device Co. was used at the absorbance wavelength of 440 nm.

Another experiment has as its target T1, caspase-8 (Homo sapiens, UniProt Q14790).
T1 construct: p10 and p20 subunits (Thornberry, N. A. et al, Nature, 1992, 356, 768) were expressed in E. coli; made in house; host or cells: E. coli
Put plainly: Caspase-8 inhibitory effect (fluorescent substrate AcDEVD-AFC). The experiment is classed as biochemical. The following applies: 25° C., 50 μM AcDEVD-AFC, 2.1 nM caspase-8; for kinact/KI: pH 7.5, read-out: Caspase-8 Kobs/[I] (converted). The method, then:
Caspase-1 and caspase-8 known as cysteine proteases in the form of α2β2 were expressed, purified, and activated by modifying a method known in Thornberry, N. A. et al, Nature, 1992, 356, 768. Thornberry, N. A. Methods in Enzymology, 1994, 244, 615. Walker, N. P. C. et al. Cell, 1994, 78, 343, and caspase-9 was also purified by a similar method, and the inhibitory activity against them was tested. Briefly describing, p10 and p20 subunits (Thornberry, N. A. et al, Nature, 1992, 356, 768) were expressed in E. coli and purified by nickel column and anionic exchange chromatography to give caspase-1, caspase-8 and caspase-9. The fluorescent substrate AcYVAD-AFC for thus obtained caspase-1, AcDEVD-AFC for caspase-8, and AcLEHD-AFC for caspase-9 were used for determining specific activity of the synthesized inhibitors. The enzyme reaction was carried out at 25° C. with various concentrations of the inhibitors in a buffer solution containing 50 mM HEPES(pH 7.50), 10% (w/v) sucrose, 0.1% (w/v) CHAPS, 100 mM NaCl, 1 mM EDTA, and 10 mM DTT in the presence of 50 μM AcYVAD-AFC for 10 nM caspase-1, 50 μM AcDEVD-AFC for 2.1 nM caspase-8, and 150 μM AcLEHD-AFC for 200 nM caspase-9. The inhibitory constants Ki and Kobs of the inhibitors were determined by measuring the reaction velocity with the time lapse using a fluorescent spectrometer and by obtaining the initial rate constant. Ki was calculated from the Lineweaver Burk Plot, and Kobs from the following Equation 1. Kobs=−ln(1−At/Aoo)/t Equation 1
At means cleavate rate (%) at time t, and
Aoo means the maximum cleavage rate (%).
Spectra MAX GeminiXS Fluorescent Spectrometer of Molecular Device Co. was used at the excitation wavelength of 405 nm and the emission wavelength of […].

T1 sequence (Q14790 217-374 limits assumed, species assumed): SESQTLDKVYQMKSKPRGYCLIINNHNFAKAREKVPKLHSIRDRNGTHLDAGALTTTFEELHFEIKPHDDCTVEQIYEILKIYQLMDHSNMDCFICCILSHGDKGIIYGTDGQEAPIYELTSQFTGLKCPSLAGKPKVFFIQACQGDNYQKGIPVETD
T1 sequence (Q14790 385-479 limits assumed, species assumed): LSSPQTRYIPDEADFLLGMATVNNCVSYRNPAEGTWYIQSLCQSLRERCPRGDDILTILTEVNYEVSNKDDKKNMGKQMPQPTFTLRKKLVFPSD

`CCC1(C(=O)NC(CC(=O)O)C(=O)CF)CC(c2ccccc2C(C)C)=NO1` (stereo not drawn) [Iaa1, 3-({[5-Ethyl-3-(2-isopropylphenyl)-4,5-dihydro-5-isoxazolyl]carbonyl}amino)-5-fluoro-4-oxopentanoic acid] came in with an IC50 in experiment [1] of 330 nM. Further, the kinact/KI at caspase-8 is 3000 M⁻¹ s⁻¹. On the same counts, the results for `CCC1(C(=O)NC(CC(=O)O)C(=O)CF)CC(c2cccc(C(C)(C)C)c2)=NO1` (stereo not drawn) [Iaa2, 3-[({3-[3-(tert-Butyl)phenyl]-5-ethyl-4,5-dihydro-5-isoxazolyl}carbonyl)amino]-5-fluoro-4-oxopentanoic acid] are 560 nM and 5330 M⁻¹ s⁻¹. On the same counts, the results for `CCC1(C(=O)NC(CC(=O)O)C(=O)CF)CC(c2ccc(C(C)(C)C)cc2)=NO1` (stereo not drawn) [Iaa3, 3-[({3-[4-(tert-Butyl)phenyl]-5-ethyl-4,5-dihydro-5-isoxazolyl}carbonyl)amino]-5-fluoro-4-oxopentanoic acid] are 2650 nM and 2330 M⁻¹ s⁻¹. On the same counts, the results for `CC(C)c1ccccc1C1=NO[C@@](C(=O)NC(CC(=O)O)C(=O)CF)(C(C)C)C1` (stereo partly drawn) [Iaa4, 5-Fluoro-3-({[(5R)-5-isopropyl-3-(2-isopropylphenyl)-4,5-dihydro-5-isoxazolyl]carbonyl}amino)-4-oxopentanoic Acid] are 670 nM and 8330 M⁻¹ s⁻¹. In experiment [1], `CC(C)[C@@]1(C(=O)NC(CC(=O)O)C(=O)CF)CC(c2cccc(C(C)(C)C)c2)=NO1` (stereo partly drawn) [Iaa5, 3-[({(5R)-3-[3-(tert-butyl)phenyl]-5-isopropyl-4,5-dihydro-5-isoxazolyl}carbonyl)amino]-5-fluoro-4-oxopentanoic acid] returned a half-maximal inhibitory concentration (IC50) of 300 nM. Moreover, the kinact/KI on caspase-8 was 5000 M⁻¹ s⁻¹. In experiment [1], `CC(C)C1(C(=O)NC(CC(=O)O)C(=O)CF)CC(c2cccc(-c3ccccc3)c2)=NO1` (stereo not drawn) [Iaa6, 3-{[(3-[1,1′-biphenyl]-3-yl-5-isopropyl-4,5-dihydro-5-isoxazolyl)carbonyl]amino}-5-fluoro-4-oxopentanoic acid] returned an IC50 of 2450 nM. The kinact/KI at caspase-8 is 3330 M⁻¹ s⁻¹. On the same counts, the results for `CCC1(C(=O)NC(CC(=O)O)C(=O)CF)CC(c2ccccn2)=NO1` (stereo not drawn) [Iaa7, 3-({[5-Ethyl-3-(2-pyridinyl)-4,5-dihydro-5-isoxazolyl]carbonyl}amino)-5-fluoro-4-oxopentanoic Acid] are 2270 nM and 733 M⁻¹ s⁻¹. In experiment [1], `CCC1(C(=O)NC(CC(=O)O)C(=O)CF)CC(c2cc(C(C)(C)C)ccn2)=NO1` (stereo not drawn) [Iaa8, 3-[({3-[4-(tert-Butyl)-2-pyridinyl]-5-ethyl-4,5-dihydro-5-isoxazolyl}carbonyl)amino]-5-fluoro-4-oxopentanoic Acid] showed an IC50 of 700 nM. Besides, on caspase-8, the kinact/KI is 7500 M⁻¹ s⁻¹. The corresponding values for `CC(C)[C@@]1(C(=O)NC(CC(=O)O)C(=O)CF)CC(c2cc(C(C)(C)C)ccn2)=NO1` (stereo partly drawn) [Iaa9, 3-[({(5R)-3-[4-(tert-butyl)-2-pyridinyl]-5-isopropyl-4,5-dihydro-5-isoxazolyl}carbonyl)amino]-5-fluoro-4-oxopentanoic acid] are 1240 nM and 3830 M⁻¹ s⁻¹. On the same counts, the results for `CCC1(C(=O)NC(CC(=O)O)C(=O)CF)CC(c2cc(CC(C)C)ccn2)=NO1` (stereo not drawn) [Iaa10, 3-({[5-Ethyl-3-(4-isobutyl-2-pyridinyl)-4,5-dihydro-5-isoxazolyl]carbonyl}amino)-5-fluoro-4-oxopentanoic acid] are 1020 nM and 2500 M⁻¹ s⁻¹. The corresponding values for `CCC1(C(=O)NC(CC(=O)O)C(=O)CF)CC(c2cc(C(C)=O)ccn2)=NO1` (stereo not drawn) [Iaa11, 3-({[3-(4-Acetyl-2-pyridinyl)-5-ethyl-4,5-dihydro-5-isoxazolyl]carbonyl}amino)-5-fluoro-4-oxopentanoic acid] are 31000 nM and 1070 M⁻¹ s⁻¹. Compound `CCC1(C(=O)NC(CC(=O)O)C(=O)CF)CC(c2cc(C3CC3)ccn2)=NO1` (stereo not drawn) [Iaa12, 3-({[3-(4-Cyclopropyl-2-pyridinyl)-5-ethyl-4,5-dihydro-5-isoxazolyl]carbonyl}amino)-5-fluoro-4-oxopentanoic acid] came in with an IC50 in experiment [1] of 700 nM. The kinact/KI at caspase-8 was 3170 M⁻¹ s⁻¹. On the same counts, the results for `CCC1(C(=O)NC(CC(=O)O)C(=O)CF)CC(c2cc(C3CCCC3)ccn2)=NO1` (stereo not drawn) [Iaa13, 3-({[3-(4-Cyclopentyl-2-pyridinyl)-5-ethyl-4,5-dihydro-5-isoxazolyl]carbonyl}amino)-5-fluoro-4-oxopentanoic Acid] are 350 nM and 5170 M⁻¹ s⁻¹. The compound `CC(C)[C@@]1(C(=O)NC(CC(=O)O)C(=O)CF)CC(c2cc(C3CCCC3)ccn2)=NO1` (stereo partly drawn) [Iaa14, 3-({[(5R)-3-(4-cyclopentyl-2-pyridinyl)-5-isopropyl-4,5-dihydro-5-isoxazolyl]carbonyl}amino)-5-fluoro-4-oxopentanoic Acid] came in with an IC50 in experiment [1] of 790 nM. Also, at caspase-8, the kinact/KI was 6830 M⁻¹ s⁻¹. The corresponding values for `CCC1(C(=O)NC(CC(=O)O)C(=O)CF)CC(c2cc(C3CCCCC3)ccn2)=NO1` (stereo not drawn) [Iaa15, 3-({[3-(4-Cyclohexyl-2-pyridinyl)-5-ethyl-4,5-dihydro-5-isoxazolyl]carbonyl}amino)-5-fluoro-4-oxopentanoic Acid] are 720 nM and 7170 M⁻¹ s⁻¹. In the case of `CCC1(C(=O)NC(CC(=O)O)C(=O)CF)CC(c2nccc3c2CCCC3)=NO1` (stereo not drawn) [Iaa16, 3-({[5-Ethyl-3-(5,6,7,8-tetrahydro-1-isoquinolinyl)-4,5-dihydro-5-isoxazolyl]carbonyl}amino)-5-fluoro-4-oxopentanoic acid], in experiment [1], the midpoint of inhibition, the IC50, lay at 730 nM. Also, the kinact/KI at caspase-8 is 10300 M⁻¹ s⁻¹. On the same counts, the results for `CC(C)C1(C(=O)NC(CC(=O)O)C(=O)CF)CC(c2cc(-c3ccccc3)ccn2)=NO1` (stereo not drawn) [Iaa17, 5-Fluoro-3-({[5-isopropyl-3-(4-phenyl-2-pyridinyl)-4,5-dihydro-5-isoxazolyl]carbonyl}amino)-4-oxopentanoic Acid] are 1140 nM and 3000 M⁻¹ s⁻¹. On the same counts, the results for `CC(C)[C@@]1(C(=O)N[C@@H](CC(=O)O)C(=O)COP(=O)(c2ccccc2)c2ccccc2)CC(c2nccc3ccccc23)=NO1` [Iaa18, (3S)-5-[(diphenylphosphoryl)oxy]-3-({[(5R)-5-isopropyl-3-(1-isoquinolinyl)-4,5-dihydro-5-isoxazolyl]carbonyl}amino)-4-oxopentanoic acid] are 1500 nM and 8670 M⁻¹ s⁻¹.

`C=CC(=O)[C@H](CC(=O)O)NC(=O)[C@]1(C(C)C)CC(c2nccc3ccccc23)=NO1` [Iaa22, (3S)-3-({[(5R)-5-isopropyl-3-(1-isoquinolinyl)-4,5-dihydro-5-isoxazolyl]carbonyl}amino)-4-oxo-5-hexenoic acid]: the “Caspase-8 Kobs/[I]” value on caspase-8 is on record as “No Activity”. The same measure, in the same setting: the same measure for `CCC1(C(=O)N[C@@H](CC(=O)O)C(=O)COc2ccccn2)CC(c2ccccc2C(C)C)=NO1` (stereo partly drawn) [Iaa24, (3S)-3-({[5-ethyl-3-(2-isopropylphenyl)-4,5-dihydro-5-isoxazolyl]carbonyl}amino)-4-oxo-5-(2-pyridinyloxy)pentanoic Acid]: “No Activity”.

`CC(C)[C@@]1(C(=O)N[C@@H](CC(=O)O)C(=O)CF)CC(c2nccc3ccccc23)=NO1` [Iii-1, (3S)-5-fluoro-3-({[(5R)-5-isopropyl-3-(1-isoquinolinyl)-4,5-dihydro-5-isoxazolyl]carbonyl}amino)-4-oxopentanoic acid]: the kinact/KI at caspase-8 is 383000 M⁻¹ s⁻¹.

For the compound `CC(C)[C@@]1(C(=O)N[C@H](CC(=O)O)C(=O)CF)CC(c2nccc3ccccc23)=NO1` [Iii-2, (3R)-5-fluoro-3-({[(5R)-5-isopropyl-3-(1-isoquinolinyl)-4,5-dihydro-5-isoxazolyl]carbonyl}amino)-4-oxopentanoic acid], the kinact/KI at caspase-8 was 7830 M⁻¹ s⁻¹. For the compound `CCOC(=O)/C=C/[C@H](CC(=O)O)NC(=O)[C@]1(C(C)C)CC(c2nccc3ccccc23)=NO1` [Irr, (3S,4E)-6-ethoxy-3-({[(5R)-5-isopropyl-3-(1-isoquinolinyl)-4,5-dihydro-5-isoxazolyl]carbonyl}amino)-6-oxo-4-hexenoic Acid], the “Jurkat cell IC50” value in experiment [1] is on record as “No Activity”. The same measure, in the same setting: the result for `CC(C)[C@@]1(C(=O)N[C@H](/C=C/S(C)(=O)=O)CC(=O)O)CC(c2nccc3ccccc23)=NO1` [Iss, (3S,4E)-3-({[(5R)-5-isopropyl-3-(1-isoquinolinyl)-4,5-dihydro-5-isoxazolyl]carbonyl}amino)-5-(methylsulfonyl)-4-pentenoic acid] reads “No Activity”.

One may read the IC50 as the concentration at which inhibition is half-maximal.
